Molecules are shown by their SMILES.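 Following 48 hours of exposure in 96-well plates, responses at five concentrations were used to interpolate endpoints linearly. TGI: concentration producing complete growth inhibition.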

What all share (experiment): growth of human tumour cells (NCI), 48 h
Test [1] has as its system CCRF-CEM leukemia.
Test [2] has as its system IGROV1 ovarian.
Test [3] deals with MALME-3M melanoma.
For test [4], the system named is NCI-H23 lung.
In test [5] the test system is NCI-H522 lung.
The test system of test [6] is OVCAR-3 ovarian.
The test system of test [7] is OVCAR-4 ovarian.
Test [8] relates to SF-539 CNS.
For test [9], the system named is SN12C renal.
Test [10] relates to T-47D breast.

Consider `COc1cc2c3c(cc(Cl)nc3c1OC)C(=O)C(=O)N2`, for which the TGI came to 8.21 µM in test [1]; 25.1 µM in [2]; 3.82 µM in test [3]; 34.1 µM in test [4]; 14.9 µM in test [5]; 32.5 µM in test [6]. The TGI in [7] was 3.05 µM; in [8] it was 36.4 µM; in test [9], 21 µM; in test [10] it was greater than 100 µM.
Consider `CC(C)(C)c1cc(/C=C2/NC(=O)NC2=O)cc(C(C)(C)C)c1O`, for which the TGI in test [1] worked out at 32.8 µM; in test [2], 31.1 µM; in test [3] it was 34.6 µM; in test [4], 30.6 µM; in test [5] it was 26.4 µM; in [6], 27.9 µM. Besides, the TGI turned out to be 26 µM in test [7], 31.6 µM in test [8], 31.4 µM in test [9] and 11.8 µM in test [10].
In the case of `C#CCOCC12C=CC(O1)C1COC(=O)C12` (stereo not given), the TGI in [1], in [2], in test [3], in test [4], in test [5] and in test [6] was greater than 100 µM each time. Besides, the TGI in test [7], in [8], in test [9] and in test [10] was greater than 100 µM throughout.
With `O=C(Sc1c(-c2ccccc2)c(=O)n(-c2ccccc2)c(=S)n1-c1ccccc1)c1ccco1`, the TGI in test [1] is 69.3 µM; in test [2], greater than 100 µM; in [3], greater than 100 µM; in test [4], greater than 100 µM; in test [5], greater than 100 µM; in test [6] it was greater than 100 µM. The TGI in [7], in [8], in test [9] and in [10] was greater than 100 µM in each case.
`CNC(=S)NNc1ncnc2c1c(-c1ccc(Cl)cc1)cn2-c1ccc(C)cc1`: the TGI in [1] was greater than 100 µM; in [2], 25 µM; in test [3] it was 33 µM; in [4], 28.2 µM; in [5] it was 20.7 µM; in [6] it was 24 µM. The TGI is 37.6 µM in [7], 29.8 µM in test [8], 24.3 µM in [9] and 24.1 µM in test [10].
Regarding `CCOc1ccc(N=Nc2ccc3cc(/C(C)=N/NC(=O)/C(C#N)=C\c4ccc(N(CCC#N)CCC#N)cc4)c(=O)oc3c2)cc1`, the TGI in test [1], in [2], in [3], in test [4], in [5] and in [6] was greater than 10 µM each time. The TGI in test [7], in [8], in [9] and in [10] was greater than 10 µM in each case.
As to `O=[N+]([O-])/C(Cl)=C(/C(Cl)=C(Cl)Cl)N1CCCCC1`, the TGI in test [1] stood at 19.7 µM; in [2], 23.4 µM; in test [3], 11.6 µM; in [4], 22.2 µM; in test [5], 23.2 µM; in [6], 22.8 µM. Further, the TGI in [7] was 27.5 µM; in test [8] it was 31.9 µM; in [9], 27.4 µM; in [10], 34 µM.
Regarding `Clc1cc(C(c2cc(Cl)sc2Cl)c2cc(Cl)sc2Cl)c(Cl)s1`, the TGI in test [1], in test [2], in test [3], in test [4], in [5] and in [6] was greater than 100 µM each time. Also, the TGI in test [7], in [8], in test [9] and in test [10] was greater than 100 µM in each case.
As to `N#Cc1nc(CCCN2C(=O)c3ccccc3C2=O)oc1N`, the TGI in [1], in test [2], in test [3], in test [4], in test [5] and in test [6] was greater than 100 µM in each case. In addition, the TGI in [7], in [8], in [9] and in test [10] was greater than 100 µM throughout.
Take `O=C1CS/C(=N/N=C/c2cn(Cc3ccc(Cl)cc3Cl)c3ccccc23)N1`: the TGI in [1] was 56.4 µM; in test [2], greater than 100 µM; in test [3], greater than 100 µM; in test [4] it was greater than 100 µM; in test [5], greater than 100 µM; in [6], greater than 100 µM. Moreover, the TGI in [7] is greater than 100 µM; in [8], 41 µM; in test [9] it was 70.9 µM; in test [10] it was greater than 100 µM.
Turning to `O=C1CC(c2ccccc2Cl)C2(C(=O)NC(=O)NC2=O)C(c2ccccc2Cl)C1` (stereo not given), the TGI is greater than 100 µM in test [1]; 95.9 µM in [2]; 72.4 µM in test [3]; greater than 100 µM in [4]; greater than 100 µM in test [5]; greater than 100 µM in test [6]. For the same molecule, the TGI in test [7] is greater than 100 µM; in test [8] it was greater than 100 µM; in test [9], greater than 100 µM; in test [10], 78.2 µM.
On to `COc1ccc2c(c1)-c1c(c3cc(OC)ccc3n1CCN(C)C)CC2`, for which the TGI in [1] was found to be 26.4 µM; in [2] it was 25.9 µM; in test [3] it was 31 µM; in [4], 29.6 µM; in test [5], 34.1 µM; in [6], 28.1 µM. Also, the TGI in test [7] stood at 33.1 µM; in test [8], 29.8 µM; in test [9], 26 µM; in [10], 41 µM.
Take `O=C(/C=C\Nc1ccccc1O)C(F)(F)F`: the TGI in test [1] is greater than 100 µM; in [2], greater than 100 µM; in [3] it was 91.3 µM; in [4] it was greater than 100 µM; in [5], greater than 100 µM; in [6] it was 87 µM. Further, the TGI in test [7], in test [8], in test [9] and in test [10] was greater than 100 µM in each case.
